According to ChEMBL document CHEMBL5620368, “Molecular-level strategic goals and repressors in Leishmaniasis - Integrated data to accelerate target-based heterocyclic scaffolds” (Eur J Med Chem, 2023):
≈ marks a conversion by molar mass, not a printed value.

What was measured:
[1] = molecular target: Arginase (Leishmania amazonensis, UniProt O96394); experiment: Inhibition of Leishmania amazonensis Arginase
[2] = Inhibition of Leishmania braziliensis DNA topoisomerase I
[3] = test system: Leishmania amazonensis; experiment: Antiprotozoal activity against Leishmania amazonensis axenic amastigotes assessed as growth inhibition measured after 5 days by MTT assay; format: functional, organism-based; settings: 120 h
[4] = test system: Leishmania infantum; experiment: Antileishmanial activity against Leishmania infantum infected in BALB/c mouse assessed as reduction of parasite burden in spleen at 2.5 mg/kg for 15 days relative to control; format: functional; set-up: scale not given: the % may be the effect or the level left; settings: time 15 day
[5] = test system: Leishmania donovani; experiment: Antileishmanial activity against Leishmania donovani Ag83 amastigotes infected in BALB/c mouse macrophage assessed as cell viability incubated for 48 hrs by PI staining based analysis; format: functional, organism-based; settings: Ag83, 48 h
[6] = test system: Leishmania mexicana; experiment: Antileishmanial activity against Leishmania mexicana promastigotes MHOM/B2/62/BEL21 assessed as reduction in parasite growth by tryphan blue staining based analysis; format: functional, organism-based
[7] = test system: Leishmania amazonensis; experiment: Antileishmanial activity against Leishmania amazonensis intracellular amastigotes assessed as parasite growth inhibition; format: functional, organism-based
[8] = test system: Leishmania donovani; experiment: Antileishmanial activity against Leishmania donovani intracellular amastigotes assessed as parasite growth inhibition; format: functional, organism-based
[9] = test system: Leishmania donovani; experiment: Antileishmanial activity against Leishmania donovani promastigotes assessed as parasite growth inhibition incubated for 72 hrs by Alamar blue staining based analysis; format: functional, organism-based
[10] = Inhibition of recombinant rat liver arginase
[11] = test system: Leishmania donovani; experiment: Antileishmanial activity against Leishmania donovani promastigotes infected in golden hamster assessed as reduction in parasite load in spleen at 3 mg/kg administered twice per week for 4 weeks relative to control; format: functional; set-up: scale not given: the % may be the effect or the level left
[12] = test system: Leishmania amazonensis; experiment: Antileishmanial activity against Leishmania amazonensis promastigotes assessed as reduction in parasite growth after 72 hrs by CCK-8 assay; format: functional, organism-based
[13] = test system: Leishmania donovani; experiment: Antileishmanial activity against Leishmania donovani MHOM/IN/83/AG83 promastigotes infected in BALB/c mouse assessed as reduction of parasite burden in spleen at 20 mg/kg per day relative to control; format: functional; set-up: scale not given: the % may be the effect or the level left
[14] = test system: Leishmania infantum; experiment: Inhibition of Leishmania infantum Arginase expressed in Escherichia coli BL21 (DE3) at 100 uM by enzymatic assay relative to control
[15] = test system: Leishmania infantum; experiment: Inhibition of Leishmania infantum promastigotes Arginase expressed in Escherichia coli BL21 (DE3) at 100 uM by enzymatic assay relative to control
[16] = molecular target: Trypanothione reductase (Leishmania donovani, UniProt P39050); experiment: Inhibition of Leishmania donovani Trypanothione reductase
Chain of Trypanothione reductase (P39050 whole entry): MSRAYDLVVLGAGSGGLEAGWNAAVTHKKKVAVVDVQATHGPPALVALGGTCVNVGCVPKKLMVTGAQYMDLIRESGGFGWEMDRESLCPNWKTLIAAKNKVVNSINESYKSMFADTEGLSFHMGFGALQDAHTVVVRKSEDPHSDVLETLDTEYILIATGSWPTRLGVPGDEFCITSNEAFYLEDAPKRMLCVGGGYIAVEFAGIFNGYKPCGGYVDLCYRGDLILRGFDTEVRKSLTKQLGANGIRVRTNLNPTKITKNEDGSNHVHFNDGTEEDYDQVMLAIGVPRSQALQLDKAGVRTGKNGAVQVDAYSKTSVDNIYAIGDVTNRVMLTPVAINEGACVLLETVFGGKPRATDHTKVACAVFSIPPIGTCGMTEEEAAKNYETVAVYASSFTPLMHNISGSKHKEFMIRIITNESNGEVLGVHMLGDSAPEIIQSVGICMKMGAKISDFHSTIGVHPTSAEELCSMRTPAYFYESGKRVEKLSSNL

[17] = test system: Leishmania infantum; experiment: Antileishmanial activity against Leishmania infantum MCAN/ES/ 89/IPZ229/1/89 axenic amastigotes assessed as reduction in parasite viability treated for 24 hrs by PI staining based flow cytometry; format: functional, organism-based; settings: MCAN/ES/ 89/IPZ229/1/89, 24 h
[18] = test system: Leishmania infantum; experiment: Antileishmanial activity against Leishmania infantum MCAN/ES/ 89/IPZ229/1/89 promastigote assessed as reduction in parasite viability incubated for 24 hrs by PI staining based flow cytometry; format: functional, organism-based; settings: MCAN/ES/ 89/IPZ229/1/89, 24 h
[19] = Inhibition of Leishmania infantum Trypanothione reductase
[20] = molecular target: T1, DNA topoisomerase I (Leishmania donovani (strain BPK282A1), UniProt E9BRC0); experiment: Inhibition of Leishmania donovani DNA topoisomerase I
T1 sequence (E9BRC0 whole entry): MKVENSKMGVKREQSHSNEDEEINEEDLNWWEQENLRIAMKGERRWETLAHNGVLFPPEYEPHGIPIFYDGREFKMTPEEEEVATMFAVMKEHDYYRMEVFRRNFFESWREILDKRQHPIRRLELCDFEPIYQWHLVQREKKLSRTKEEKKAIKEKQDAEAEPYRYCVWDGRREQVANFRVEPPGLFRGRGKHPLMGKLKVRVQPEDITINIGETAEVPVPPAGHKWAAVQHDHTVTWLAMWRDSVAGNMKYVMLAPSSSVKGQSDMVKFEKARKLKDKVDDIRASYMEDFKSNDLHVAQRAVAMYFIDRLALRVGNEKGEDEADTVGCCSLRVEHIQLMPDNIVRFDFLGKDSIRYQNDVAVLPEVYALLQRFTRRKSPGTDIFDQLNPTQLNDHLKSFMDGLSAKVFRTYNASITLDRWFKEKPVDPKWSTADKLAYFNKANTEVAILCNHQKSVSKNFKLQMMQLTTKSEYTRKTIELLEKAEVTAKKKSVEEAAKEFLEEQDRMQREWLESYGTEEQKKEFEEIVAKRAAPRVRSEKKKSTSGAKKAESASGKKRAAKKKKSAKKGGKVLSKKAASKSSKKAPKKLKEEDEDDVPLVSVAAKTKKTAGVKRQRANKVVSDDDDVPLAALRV

[21] = test system: Leishmania major; experiment: Antileishmanial activity against Leishmania major amastigotes assessed as reduction in parasite growth incubated for 72 hrs by MTS assay; format: functional, organism-based
[22] = test system: Leishmania donovani; experiment: Antileishmanial activity against Leishmania donovani amastigotes assessed as parasite growth inhibition incubated for 72 hrs by MTS assay; format: functional, organism-based
[23] = test system: Leishmania donovani; experiment: Antileishmanial activity against Leishmania donovani MHOM/IN/1983/AG83 promastigote assessed as reduction in parasite growth incubated for 12 hrs by MTT assay; format: functional, organism-based; settings: MHOM/IN/1983/AG83, 12 h
[24] = test system: Leishmania donovani; experiment: Antileishmanial activity against Leishmania donovani promastigotes infected in hamster assessed as reduction in parasite load in spleen; format: functional, organism-based

Compound CC(=O)Cc1ccccc1C(F)(F)C(=O)NNc1ccccc1 has an IC50 [1] of 12.7 µM.
O=C1C(O)=C(C(C2=C(O)C(=O)c3ccccc3C2=O)c2ccc(F)cc2)C(=O)c2ccccc21 showed an IC50 [2] of 0.6 µM.
For COc1ccc2c(c[n+](C)c3c4cc5c(cc4ccc23)OCO5)c1OC [CHELERYTHRINE], the IC50 [3] was 0.03 µM.
Compound COc1cc2c3c(n(CCCN4CCOCC4)c(=O)c2cc1OC)-c1cc2c(cc1C3=O)OCO2 [INDOTECAN] has an Activity [4] of 80%.
Compound COc1ccc([C@@H]2Cc3cc(OC)c(O)cc3[C@H](CO)[C@@H]2COC2OCC(O)[C@@H](O)[C@H]2O)cc1O (stereo partly specified) has an EC50 [5] of 1.84 µM.
Work on CCCCCCCCCCCCCCCCOP(=O)([O-])OCC[N+](C)(C)C [MILTEFOSINE] yielded an IC50 [6] of 2.18 mg/L (≈ 5.35 µM).
In the case of COc1cc(C)cc2c1C(=O)C1OC1(c1c(C)cc3c(c1OC)C(=O)C1OC1C3=O)C2=O (stereo unspecified), the IC50 [7] is reported as 0.18 µM, the IC50 [8] is reported as 20.7 µM and the IC50 [9] is reported as 20.7 µM.
COC[C@@H](Cc1ccc(OC)c(OC)c1)[C@@H](COC)Cc1cc(OC)c2c(c1)OCO2 showed an EC50 [5] of 1.26 µM.
Compound O=C(O)c1cc(O)c(O)c(O)c1 [GALLIC ACID] has an IC50 [10] of 3.8 µM.
In the case of Cc1ccc2c(c1)C1c3ccccc3CC1C(c1ccccn1)N2 (stereo unspecified), the IC50 [6] is reported as 1 mg/L (≈ 3.2 µM).
With O=C(Nc1ccc(F)c(-c2ccn3c(N4CCOCC4)cnc3n2)c1)N1CCCC1 [GSK-3494245] the Activity [11] was 95%.
For C/C=C1/CN(C)[C@H]2Cc3c([nH]c4ccccc34)[C@H](c3cc4[nH]c5c(c4cc3OC)CCN3C[C@@H]4C[C@H](CC)[C@H]3[C@@]5(C(=O)OC)C4)C[C@@H]1C2C(=O)OC (stereo partly specified), the EC50 [5] was 1.68 µM.
Compound Oc1cc(O)c2c(c1)O[C@H](c1ccc(O)c(O)c1)[C@@H](O)C2 [CIANIDANOL] has an IC50 [10] of 1.8 µM.
With O=c1cc(-c2ccc(O)c(O)c2)oc2c(C3OC(CO)[C@@H](O)[C@@H](O)[C@@H]3O)c(O)cc(O)c12 (stereo partly specified) the IC50 [12] was 15.9 µM.
For CC(C)CN(C[C@@H](O)[C@H](Cc1ccccc1)NC(=O)O[C@H]1CCOC1)S(=O)(=O)c1ccc(N)cc1 [AMPRENAVIR], the Activity [13] was 98%.
Compound O=C(/C=C/c1ccc([N+](=O)[O-])cc1)c1ccc(Br)cc1 has an inhibition [14] of 71.9% and an inhibition [15] of 55.2%.
In the case of O=C1C(O)=C(CC2=C(O)C(=O)c3ccccc3C2=O)C(=O)c2ccccc21, the IC50 [2] is reported as 71 µM.
O[C@H](CC1c2ccccc2-c2ccccc21)CN1CCN(C[C@H](O)C[C@@H]2c3ccc(Br)cc3-c3cc(Br)cc(Br)c32)CC1 gave an IC50 [16] of 98.4 µM.
Work on NCCNCc1nccn1-c1ccc(-c2nc(CCc3ccccc3-c3ccccc3)cs2)c(OCCN2CCNC2=O)c1 yielded an EC50 [17] of 5.3 µM, an EC50 [18] of 5.3 µM and an IC50 [19] of 8.6 µM.
O=C(O[C@@H]1Cc2c(O)cc(O)cc2O[C@@H]1c1cc(O)c(O)c(O)c1)c1cc(O)c(O)c(O)c1 [EPIGALOCATECHIN GALLATE] showed an IC50 [10] of 3.8 µM.
For sodium antimony gluconate, the Activity [13] was 97%.
CCCCCCCCCCCCCCCC#CC(=O)O showed an IC50 [20] of 5.3 µM.
Work on C/C=C(\CC[C@@H](C)[C@H]1CC[C@H]2[C@@H]3CC=C4C[C@@H](O)CC[C@]4(C)[C@H]3CC[C@]12C)C(C)C [FUCOSTEROL] yielded an IC50 [21] of 19 mg/L (≈ 46 µM) and an IC50 [22] of 18.5 mg/L (≈ 44.8 µM).
For NCCNCc1nccn1-c1ccc(-c2nc(CCc3cccc4ccccc34)cs2)c(OCCN2CCNC2=O)c1, the EC50 [17] was 12.8 µM, the EC50 [18] was 12.8 µM and the IC50 [19] was 5.1 µM.
In the case of O=C1c2ccccc2-c2c1c1ccc([N+](=O)[O-])cc1c(=O)n2CCCN1CCOCC1, the Activity [4] is reported as 80%.
O=C1OC(c2ccc(Cl)cc2)c2cc(-c3ccc(Cl)cc3)cc(O)c21 (stereo unspecified) showed an IC50 [23] of 5.4 µM and an IC50 [24] of 9.81 µM.
With O=c1cc(-c2ccccc2)oc2c(O)c(O)ccc12 [7,8-DIHYDROXYFLAVONE] the IC50 [1] was 12 µM.
